Our source for the IC50, inhibition in vivo and change in vivo values is patent US9493430B2, “Biaryl- or heterocyclic biaryl-substituted cyclohexene derivative compounds as CETP inhibitors” (CHONG KUN DANG PHARMACEUTICAL CORP., priority 2013, dated 2016).

In one assay the target is CETP (Homo sapiens (Human), UniProt P11597). Kind of assay: Test for inhibition of cholesteryl ester transfer (in vitro). Conditions: human plasma as CETP source, LDL from healthy persons as acceptor, rHDL-agarose donor, 37° C. Format: biochemical. An excerpt:
Test for Inhibition of Cholesteryl Ester Transfer (In Vitro)
1. Construction of Cholesteryl Ester Donor
To construct a cholesteryl ester donor to be used in the test, radiolabeled recombinant HDL containing […] (GE healthcare, TRK886, 3.5 μCi/mg of apoA-1) and apoA-1 was synthesized. Then, rHDL-agarose having the recombinant HDL immobilized thereon by CNBr-activated Sepharose 4B (Amersham Biosciences, Sweden) resin was used in the test.
2. Cholesteryl Ester Transfer Test
As a protein source for cholesteryl ester transfer, plasma from healthy persons was used, and as a cholesteryl ester receptor, LDL from healthy persons was used. Samples were treated with each test compound to final concentrations of 16, 80, 400, 2000 and 10000 nM and analyzed in duplicate. For the cholesteryl ester transfer test, 20 μl of plasma, 50 μl of LDL (0.25 mg/ml) and 50 μl of rHDL-agarose (0.25 mg/ml) were added, and a solution containing a test compound was added, followed by reaction at 37° C. Then, centrifugation was performed at 4° C. for 3 minutes to stop the reaction, and 150 μl of the supernatant was taken and transferred to a 96-well plate for radioactivity measurement, and the radioactivity of the plate was measured with a beta-ray detector.
(§1) 3. Statistical Processing
The ratio of [^3H]-cholesteryl oleate from HDL to LDL was calculated and used as a result value, and from the result value, IC50 value was calculated using GraphPad Prism 5.0.

The subject of another assay is golden Syrian hamsters. Kind of assay: Test for anti-hyperlipidemic effect in hamsters (in vivo). Conditions: Mesocricetus auratus, po, 3 mg/kg orally for 5 days, blood 4 hours after final administration, vs control; for inhibition in vivo at 3 mg/kg: read-out: Decrease in LDL-c (%); for change in vivo at 3 mg/kg: read-out: Increase in HDL-c (%).
Excerpt: Test for Anti-Hyperlipidemic Effect in Hamsters (In Vivo)
In this test, 8-week-old male golden Syrian hamsters were used. The breeding room was maintained at constant temperature and constant humidity and a 12-hr light/12-hr dark cycle. The animals were allowed access to feed and water ad libitum.
2. Anti-Hyperlipidemic Test in Hamsters
The test animals were acclimated for 1 week before use in the test. The test animals were divided according to body weight into several groups, each consisting of 5-8 animals, and were then administered orally with a dose of 3 mg/kg. A solvent control and a CETP inhibitor were dissolved in imwitor 742: tween 80 (1:1) and administered orally for 5 days, and at 4 hours after the final administration, blood was collected from the heart. The collected blood was centrifuged at 3000 rpm for 15 minutes, and the separated serum was measured for HDL-Cholesterol (Biosystem) and LDL-Cholesterol (Biosystem) using a biochemical analysis instrument (ILab 300 plus, Instrumentation Laboratory).
as §1
All test results were expressed as Mean±SEM, and to evaluate the effect of each test group, each test group was compared with the control group using one-way ANOVA test (Dunnett's test, p<0.001).

CETP, sequence (P11597 18-493): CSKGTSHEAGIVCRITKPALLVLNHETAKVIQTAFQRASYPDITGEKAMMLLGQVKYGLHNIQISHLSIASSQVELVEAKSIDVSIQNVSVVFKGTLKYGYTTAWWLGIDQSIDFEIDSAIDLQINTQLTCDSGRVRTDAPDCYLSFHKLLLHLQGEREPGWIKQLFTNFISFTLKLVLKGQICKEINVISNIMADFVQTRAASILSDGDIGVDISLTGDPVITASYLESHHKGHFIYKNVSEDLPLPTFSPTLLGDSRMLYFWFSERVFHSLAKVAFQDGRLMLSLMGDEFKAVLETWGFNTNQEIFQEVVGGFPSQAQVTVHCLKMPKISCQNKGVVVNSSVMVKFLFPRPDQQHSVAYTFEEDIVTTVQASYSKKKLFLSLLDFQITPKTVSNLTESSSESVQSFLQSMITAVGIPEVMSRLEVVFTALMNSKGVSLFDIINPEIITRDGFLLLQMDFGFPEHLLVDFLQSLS

In turn, `COc1ccc(-c2ccc(C(=O)O)cc2C)cc1C1=C(CN2C(=O)O[C@H](c3cc(C(F)(F)F)cc(C(F)(F)F)c3)[C@@H]2C)CC(C)(C)CC1` [Compound 554, 3′-(2-(((4S,5R)-5-(3,5-bis(trifluoromethyl)phenyl)-4-methyl-2-oxooxazolidin-3-yl)methyl)-4,4-dimethylcyclohex-1-enyl)-4′-methoxy-2-methylbiphenyl-4-carboxylic acid] registered an IC50 against CETP of 0.0058 µM. In the assay with golden Syrian hamsters, the inhibition in vivo at 3 mg/kg stood at 42% and the change in vivo at 3 mg/kg turned out to be 72%.

As to `C[C@H]1[C@@H](c2cc(C(F)(F)F)cc(C(F)(F)F)c2)OC(=O)N1CC1=C(c2cc(F)cc(-c3ccc(C(=O)O)cc3C(F)(F)F)c2)CCC(C)(C)C1` [Compound 668, 3′-(2-(((4S,5R)-5-(3,5-bis(trifluoromethyl)phenyl)-4-methyl-2-oxooxazolidin-3-yl)methyl)-4,4-dimethylcyclohex-1-enyl)-5′-fluoro-2-(trifluoromethyl)biphenyl-4-carboxylic acid], on CETP, the IC50 is 0.005 µM. Also, in the assay on golden Syrian hamsters, the inhibition in vivo at 3 mg/kg came to 16% and the change in vivo at 3 mg/kg was found to be 44%.

Consider `COc1ncc(-c2ccc(C(=O)O)cc2Cl)cc1C1=C(CN2C(=O)O[C@H](c3cc(C(F)(F)F)cc(C(F)(F)F)c3)[C@@H]2C)CC(C)(C)CC1` [Compound 584, 4-(3-(2-(((4S,5R)-5-(3,5-bis(trifluoromethyl)phenyl)-4-methyl-2-oxooxazolidin-3-yl)methyl)-4,4-dimethylcyclohex-1-enyl)-2-methoxypyridin-5-yl)-3-chlorobenzoic acid], for which the IC50 on CETP turned out to be 0.0053 µM. For the same molecule, in the assay on golden Syrian hamsters, the inhibition in vivo at 3 mg/kg came out at 40% and the change in vivo at 3 mg/kg turned out to be 46%.

With `Cc1cc(C(=O)O)ccc1-c1cc(F)cc(C2=C(CN3C(=O)O[C@H](c4cc(C(F)(F)F)cc(C(F)(F)F)c4)[C@@H]3C)CC(C)(C)CC2)c1` [Compound 650, 3′-(2-(((4S,5R)-5-(3,5-bis(trifluoromethyl)phenyl)-4-methyl-2-oxooxazolidin-3-yl)methyl)-4,4-dimethylcyclohex-1-enyl)-5′-fluoro-2-methylbiphenyl-4-carboxylic acid], on CETP, the IC50 is 0.0119 µM. In the assay with golden Syrian hamsters, the inhibition in vivo at 3 mg/kg stood at 24% and the change in vivo at 3 mg/kg came to 50%.

`COc1cc(F)c(-c2ccc(C(=O)O)cc2Cl)cc1C1=C(CN2C(=O)O[C@H](c3cc(C(F)(F)F)cc(C(F)(F)F)c3)[C@@H]2C)CC(C)(C)CC1` [Compound 631, 5′-(2-(((4S,5R)-5-(3,5-bis(trifluoromethyl)phenyl)-4-methyl-2-oxooxazolidin-3-yl)methyl)-4,4-dimethylcyclohex-1-enyl)-2-chloro-2′-fluoro-4′-methoxybiphenyl-4-carboxylic acid] registered an IC50 against CETP of 0.0019 µM. For the same molecule, in the assay on golden Syrian hamsters, the inhibition in vivo at 3 mg/kg was determined as 30% and the change in vivo at 3 mg/kg was 56%.

As for `Cc1cc(C(=O)O)ccc1-c1cccc(C2=C(CN3C(=O)O[C@H](c4cc(C(F)(F)F)cc(C(F)(F)F)c4)[C@@H]3C)CC(C)(C)CC2)c1` [Compound 651, 3′-(2-(((4S,5R)-5-(3,5-bis(trifluoromethyl)phenyl)-4-methyl-2-oxooxazolidin-3-yl)methyl)-4,4-dimethylcyclohex-1-enyl)-2-methylbiphenyl-4-carboxylic acid], half-maximal inhibition on CETP (IC50) required 0.0107 µM.

On to `COc1cc(C)c(-c2ccc(C(=O)O)cc2C)cc1C1=C(CN2C(=O)O[C@H](c3cc(C(F)(F)F)cc(C(F)(F)F)c3)[C@@H]2C)CC(C)(C)CC1` [Compound 684, 5′-(2-(((4S,5R)-5-(3,5-bis(trifluoromethyl)phenyl)-4-methyl-2-oxooxazolidin-3-yl)methyl)-4,4-dimethylcyclohex-1-enyl)-4′-methoxy-2,2′-dimethylbiphenyl-4-carboxylic acid], for which the 50% inhibitory concentration (IC50) on CETP amounted to 0.0019 µM.

The molecule `COC(=O)c1ccc(-c2cc(C3=C(CN4C(=O)O[C@H](c5cc(C(F)(F)F)cc(C(F)(F)F)c5)[C@@H]4C)CC(C)(C)CC3)c(OC)cc2F)c(C)c1` [Compound 572, methyl 5′-(2-(((4S,5R)-5-(3,5-bis(trifluoromethyl)phenyl)-4-methyl-2-oxooxazolidin-3-yl)methyl)-4,4-dimethylcyclohex-1-enyl)-2′-fluoro-4′-methoxy-2-methylbiphenyl-4-carboxylate] returned an IC50 against CETP of 0.015 µM.

Consider `COc1ncc(-c2ccc(C(=O)O)c(F)c2F)cc1C1=C(CN2C(=O)O[C@H](c3cc(C(F)(F)F)cc(C(F)(F)F)c3)[C@@H]2C)CC(C)(C)CC1` [Compound 596, 4-(3-(2-(((4S,5R)-5-(3,5-bis(trifluoromethyl)phenyl)-4-methyl-2-oxooxazolidin-3-yl)methyl)-4,4-dimethylcyclohex-1-enyl)-2-methoxypyridin-5-yl)-2,3-difluorobenzoic acid], for which the half-inhibitory concentration (IC50) on CETP was found to be 0.0179 µM.

Consider `COC(=O)c1cccc(-c2ccc(OC)c(C3=C(CN4C(=O)O[C@H](c5cc(C(F)(F)F)cc(C(F)(F)F)c5)[C@@H]4C)CC(C)(C)CC3)c2)c1` [Compound 567, methyl 3′-(2-(((4S,5R)-5-(3,5-bis(trifluoromethyl)phenyl)-4-methyl-2-oxooxazolidin-3-yl)methyl)-4,4-dimethylcyclohex-1-enyl)-4′-methoxybiphenyl-3-carboxylate], for which the IC50 against CETP was 0.0566 µM.

`Cc1cc(C(=O)O)ccc1-c1cc(C2=C(CN3C(=O)O[C@H](c4cc(C(F)(F)F)cc(C(F)(F)F)c4)[C@@H]3C)CC(C)(C)CC2)ccc1C` [Compound 677, 5′-(2-(((4S,5R)-5-(3,5-bis(trifluoromethyl)phenyl)-4-methyl-2-oxooxazolidin-3-yl)methyl)-4,4-dimethylcyclohex-1-enyl)-2,2′-dimethylbiphenyl-4-carboxylic acid]: it took 0.0159 µM to reach half-maximal inhibition against CETP (IC50).

For the molecule `COc1ccc(-c2ccc(C(=O)O)c(F)c2F)cc1C1=C(CN2C(=O)O[C@H](c3cc(C(F)(F)F)cc(C(F)(F)F)c3)[C@@H]2C)CC(C)(C)CC1` [Compound 592, 3′-(2-(((4S,5R)-5-(3,5-bis(trifluoromethyl)phenyl)-4-methyl-2-oxooxazolidin-3-yl)methyl)-4,4-dimethylcyclohex-1-enyl)-2,3-difluoro-4′-methoxybiphenyl-4-carboxylic acid], inhibition against CETP was half-maximal at 0.0084 µM (IC50).

In the case of `COc1cc(C(F)(F)F)c(-c2ccc(C(=O)O)c(F)c2)cc1C1=C(CN2C(=O)O[C@H](c3cc(C(F)(F)F)cc(C(F)(F)F)c3)[C@@H]2C)CC(C)(C)CC1` [Compound 614, 5′-(2-(((4S,5R)-5-(3,5-bis(trifluoromethyl)phenyl)-4-methyl-2-oxooxazolidin-3-yl)methyl)-4,4-dimethylcyclohex-1-enyl)-3-fluoro-4′-methoxy-2′-(trifluoromethyl)biphenyl-4-carboxylic acid], half-maximal inhibition on CETP (IC50) required 0.027 µM.

`COc1cc(F)c(-c2ccc(C(=O)O)cc2)cc1C1=C(CN2C(=O)O[C@H](c3cc(C(F)(F)F)cc(C(F)(F)F)c3)[C@@H]2C)CC(C)(C)CC1` [Compound 575, 5′-(2-(((4S,5R)-5-(3,5-bis(trifluoromethyl)phenyl)-4-methyl-2-oxooxazolidin-3-yl)methyl)-4,4-dimethylcyclohex-1-enyl)-2′-fluoro-4′-methoxybiphenyl-4-carboxylic acid] came in with an IC50 at CETP of 0.0146 µM.
